Reference: ChEMBL document CHEMBL3991601, “The target landscape of clinical kinase drugs” (Science, 2017)
Activity calls are given as the source filed them. Rule as the data show it, for most assays here: actives have a measured Kd and inactives only a lower limit.

Key:
Activin receptor type-1B = target: T1, Activin receptor type-1B (Homo sapiens, UniProt P36896)
T1 sequence (P36896 whole entry): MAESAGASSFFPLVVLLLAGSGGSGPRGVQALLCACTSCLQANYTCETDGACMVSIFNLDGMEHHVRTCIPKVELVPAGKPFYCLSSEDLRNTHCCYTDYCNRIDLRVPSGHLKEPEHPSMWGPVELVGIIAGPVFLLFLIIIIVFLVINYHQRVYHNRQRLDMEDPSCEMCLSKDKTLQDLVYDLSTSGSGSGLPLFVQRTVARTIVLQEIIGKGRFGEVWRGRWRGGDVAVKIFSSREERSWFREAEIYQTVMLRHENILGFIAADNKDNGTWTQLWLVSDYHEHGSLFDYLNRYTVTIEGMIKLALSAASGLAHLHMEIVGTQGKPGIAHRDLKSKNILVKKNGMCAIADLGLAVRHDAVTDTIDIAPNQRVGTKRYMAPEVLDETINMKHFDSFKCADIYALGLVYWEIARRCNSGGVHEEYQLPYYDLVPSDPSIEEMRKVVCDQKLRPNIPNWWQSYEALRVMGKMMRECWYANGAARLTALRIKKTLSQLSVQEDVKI

[1] = target: Serine/threonine-protein kinase MRCK alpha (Homo sapiens, UniProt Q5VT25)
Serine/threonine-protein kinase MRCK alpha, sequence (Q5VT25 whole entry, the tested form may be a part): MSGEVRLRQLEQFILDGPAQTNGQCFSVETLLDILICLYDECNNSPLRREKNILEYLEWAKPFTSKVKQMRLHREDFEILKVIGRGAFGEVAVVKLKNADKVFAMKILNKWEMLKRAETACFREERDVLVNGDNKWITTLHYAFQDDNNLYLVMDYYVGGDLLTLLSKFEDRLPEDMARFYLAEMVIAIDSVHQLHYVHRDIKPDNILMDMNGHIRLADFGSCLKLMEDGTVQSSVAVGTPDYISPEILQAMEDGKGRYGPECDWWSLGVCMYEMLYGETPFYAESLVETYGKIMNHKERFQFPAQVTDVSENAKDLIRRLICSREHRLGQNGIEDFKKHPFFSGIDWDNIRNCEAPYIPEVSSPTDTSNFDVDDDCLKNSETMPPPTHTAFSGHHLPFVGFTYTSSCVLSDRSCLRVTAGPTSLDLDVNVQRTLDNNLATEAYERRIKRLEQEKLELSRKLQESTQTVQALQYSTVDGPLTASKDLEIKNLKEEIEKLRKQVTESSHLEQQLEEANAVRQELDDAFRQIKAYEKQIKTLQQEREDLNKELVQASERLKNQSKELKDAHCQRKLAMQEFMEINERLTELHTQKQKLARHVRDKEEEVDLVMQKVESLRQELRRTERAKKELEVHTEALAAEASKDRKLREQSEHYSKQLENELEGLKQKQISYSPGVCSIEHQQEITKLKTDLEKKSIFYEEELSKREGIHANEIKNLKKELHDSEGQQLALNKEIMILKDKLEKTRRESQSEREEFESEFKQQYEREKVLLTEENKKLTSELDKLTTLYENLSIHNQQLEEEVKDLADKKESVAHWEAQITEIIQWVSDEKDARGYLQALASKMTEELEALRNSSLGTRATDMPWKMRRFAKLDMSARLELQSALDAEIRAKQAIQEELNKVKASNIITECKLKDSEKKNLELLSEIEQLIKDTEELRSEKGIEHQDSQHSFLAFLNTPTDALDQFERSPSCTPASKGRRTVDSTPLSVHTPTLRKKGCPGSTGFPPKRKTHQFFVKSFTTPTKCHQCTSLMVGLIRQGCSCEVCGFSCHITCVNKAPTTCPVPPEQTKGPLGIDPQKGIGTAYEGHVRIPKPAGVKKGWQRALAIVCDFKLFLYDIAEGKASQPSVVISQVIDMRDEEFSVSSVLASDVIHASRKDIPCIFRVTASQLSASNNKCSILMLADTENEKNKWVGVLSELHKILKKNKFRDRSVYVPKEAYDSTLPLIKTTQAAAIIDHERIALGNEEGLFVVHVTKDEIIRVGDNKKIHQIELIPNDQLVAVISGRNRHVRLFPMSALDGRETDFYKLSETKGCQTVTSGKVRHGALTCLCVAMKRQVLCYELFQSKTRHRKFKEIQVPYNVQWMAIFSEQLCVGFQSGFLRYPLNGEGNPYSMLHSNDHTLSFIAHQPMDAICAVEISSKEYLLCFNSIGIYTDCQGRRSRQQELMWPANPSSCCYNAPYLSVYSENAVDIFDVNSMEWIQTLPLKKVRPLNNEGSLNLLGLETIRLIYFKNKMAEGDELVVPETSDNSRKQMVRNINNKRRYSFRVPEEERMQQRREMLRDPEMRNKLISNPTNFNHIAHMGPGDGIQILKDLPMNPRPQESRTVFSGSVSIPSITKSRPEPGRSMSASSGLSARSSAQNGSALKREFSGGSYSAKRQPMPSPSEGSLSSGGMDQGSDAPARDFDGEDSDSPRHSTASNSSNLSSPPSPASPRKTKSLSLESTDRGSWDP

[2] = target: T2, Discoidin domain-containing receptor 2 (Homo sapiens, UniProt Q16832)
T2 sequence (Q16832 whole entry): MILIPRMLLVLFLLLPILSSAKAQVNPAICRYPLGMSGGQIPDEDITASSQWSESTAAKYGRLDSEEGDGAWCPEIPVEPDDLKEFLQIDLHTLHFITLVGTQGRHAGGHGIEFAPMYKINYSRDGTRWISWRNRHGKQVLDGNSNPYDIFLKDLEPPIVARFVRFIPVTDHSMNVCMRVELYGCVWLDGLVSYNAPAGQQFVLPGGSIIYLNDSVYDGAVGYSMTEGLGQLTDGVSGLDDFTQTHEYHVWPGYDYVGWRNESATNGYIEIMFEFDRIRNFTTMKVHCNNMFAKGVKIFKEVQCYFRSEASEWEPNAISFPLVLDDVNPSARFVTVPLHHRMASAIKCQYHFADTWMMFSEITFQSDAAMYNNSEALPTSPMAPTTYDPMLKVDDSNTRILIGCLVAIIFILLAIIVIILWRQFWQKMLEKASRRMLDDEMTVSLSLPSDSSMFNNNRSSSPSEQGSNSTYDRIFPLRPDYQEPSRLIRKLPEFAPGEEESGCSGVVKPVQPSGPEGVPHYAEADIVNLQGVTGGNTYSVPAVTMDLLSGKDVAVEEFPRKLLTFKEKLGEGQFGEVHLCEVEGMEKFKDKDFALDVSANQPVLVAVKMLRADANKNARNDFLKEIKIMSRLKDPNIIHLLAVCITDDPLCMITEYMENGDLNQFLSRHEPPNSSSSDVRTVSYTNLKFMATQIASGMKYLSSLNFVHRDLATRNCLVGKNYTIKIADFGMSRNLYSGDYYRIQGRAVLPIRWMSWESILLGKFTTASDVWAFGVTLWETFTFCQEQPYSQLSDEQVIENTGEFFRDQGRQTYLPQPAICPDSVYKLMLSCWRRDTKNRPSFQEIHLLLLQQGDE

[3] = target: T3, ATP-dependent RNA helicase DDX42 (Homo sapiens, UniProt Q86XP3)
T3 sequence (Q86XP3 whole entry): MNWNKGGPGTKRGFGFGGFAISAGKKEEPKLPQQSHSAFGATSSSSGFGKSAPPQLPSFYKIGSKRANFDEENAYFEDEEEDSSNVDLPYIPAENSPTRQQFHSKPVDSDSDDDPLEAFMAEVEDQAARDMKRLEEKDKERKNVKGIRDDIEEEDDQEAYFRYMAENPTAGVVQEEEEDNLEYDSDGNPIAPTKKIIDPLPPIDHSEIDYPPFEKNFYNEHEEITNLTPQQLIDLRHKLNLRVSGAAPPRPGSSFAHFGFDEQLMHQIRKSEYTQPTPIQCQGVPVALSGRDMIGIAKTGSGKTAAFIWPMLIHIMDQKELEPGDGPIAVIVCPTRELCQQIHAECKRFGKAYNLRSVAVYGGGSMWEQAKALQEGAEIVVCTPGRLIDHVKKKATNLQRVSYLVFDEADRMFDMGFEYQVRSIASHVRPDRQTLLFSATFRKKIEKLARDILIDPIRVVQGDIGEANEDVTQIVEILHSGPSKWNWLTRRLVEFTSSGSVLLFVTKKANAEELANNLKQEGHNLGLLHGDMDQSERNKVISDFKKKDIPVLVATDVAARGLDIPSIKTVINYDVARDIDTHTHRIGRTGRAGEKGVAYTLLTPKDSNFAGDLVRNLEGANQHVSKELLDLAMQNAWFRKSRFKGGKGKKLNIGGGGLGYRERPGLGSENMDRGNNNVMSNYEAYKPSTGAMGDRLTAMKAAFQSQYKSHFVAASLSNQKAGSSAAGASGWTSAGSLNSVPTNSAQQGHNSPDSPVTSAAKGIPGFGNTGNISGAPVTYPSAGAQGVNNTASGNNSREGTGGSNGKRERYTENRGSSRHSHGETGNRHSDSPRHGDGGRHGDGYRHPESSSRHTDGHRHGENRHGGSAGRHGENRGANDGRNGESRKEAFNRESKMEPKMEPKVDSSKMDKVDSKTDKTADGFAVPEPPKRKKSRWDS

[4] = target: Eukaryotic translation initiation factor 2-alpha kinase 1 (Homo sapiens, UniProt Q9BQI3)
Ephrin type-A receptor 2 = Ephrin type-A receptor 2 (Homo sapiens, UniProt P29317)
Ephrin type-A receptor 2, sequence (P29317 whole entry): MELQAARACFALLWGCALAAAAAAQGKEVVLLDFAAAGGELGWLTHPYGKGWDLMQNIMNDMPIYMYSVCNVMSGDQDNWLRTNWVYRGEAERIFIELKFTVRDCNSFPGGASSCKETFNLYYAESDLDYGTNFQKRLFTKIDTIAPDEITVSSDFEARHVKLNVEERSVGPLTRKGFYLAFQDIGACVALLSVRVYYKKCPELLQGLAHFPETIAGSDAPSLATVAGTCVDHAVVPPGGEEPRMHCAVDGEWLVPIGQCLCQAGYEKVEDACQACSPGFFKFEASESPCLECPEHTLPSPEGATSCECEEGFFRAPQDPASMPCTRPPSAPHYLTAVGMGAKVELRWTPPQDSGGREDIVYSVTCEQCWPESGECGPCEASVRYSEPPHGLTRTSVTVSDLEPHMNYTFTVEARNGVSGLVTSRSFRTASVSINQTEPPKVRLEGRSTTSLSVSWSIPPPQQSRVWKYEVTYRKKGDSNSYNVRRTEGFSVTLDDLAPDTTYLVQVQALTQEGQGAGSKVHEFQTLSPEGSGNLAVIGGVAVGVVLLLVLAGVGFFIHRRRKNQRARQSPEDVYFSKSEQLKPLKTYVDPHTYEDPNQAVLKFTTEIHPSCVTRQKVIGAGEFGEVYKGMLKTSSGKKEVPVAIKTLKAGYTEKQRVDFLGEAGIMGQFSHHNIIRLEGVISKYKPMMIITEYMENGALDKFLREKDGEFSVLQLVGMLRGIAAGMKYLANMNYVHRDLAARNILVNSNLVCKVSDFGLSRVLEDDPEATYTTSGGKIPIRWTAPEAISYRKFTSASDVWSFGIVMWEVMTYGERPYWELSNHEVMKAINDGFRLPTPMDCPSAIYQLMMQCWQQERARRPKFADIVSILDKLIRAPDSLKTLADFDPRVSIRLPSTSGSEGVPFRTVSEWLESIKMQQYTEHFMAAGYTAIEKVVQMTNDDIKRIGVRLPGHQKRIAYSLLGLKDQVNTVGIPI

Insulin receptor = Insulin receptor (Homo sapiens, UniProt P06213)
[5] = target: Serine/threonine-protein kinase pim-1 (Homo sapiens, UniProt P11309)
Serine/threonine-protein kinase pim-1, sequence (P11309 whole entry): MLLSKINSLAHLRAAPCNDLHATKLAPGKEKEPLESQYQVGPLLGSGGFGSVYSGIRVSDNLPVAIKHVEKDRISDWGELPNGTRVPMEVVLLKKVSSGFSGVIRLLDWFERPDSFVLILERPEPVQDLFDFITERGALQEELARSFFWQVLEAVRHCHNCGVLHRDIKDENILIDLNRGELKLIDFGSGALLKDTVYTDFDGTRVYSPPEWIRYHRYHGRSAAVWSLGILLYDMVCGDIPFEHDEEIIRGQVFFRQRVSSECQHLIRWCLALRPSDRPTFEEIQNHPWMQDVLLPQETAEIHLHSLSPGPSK

[6] = target: Rho-associated protein kinase 2 (Homo sapiens, UniProt O75116)
Rho-associated protein kinase 2, sequence (O75116 whole entry): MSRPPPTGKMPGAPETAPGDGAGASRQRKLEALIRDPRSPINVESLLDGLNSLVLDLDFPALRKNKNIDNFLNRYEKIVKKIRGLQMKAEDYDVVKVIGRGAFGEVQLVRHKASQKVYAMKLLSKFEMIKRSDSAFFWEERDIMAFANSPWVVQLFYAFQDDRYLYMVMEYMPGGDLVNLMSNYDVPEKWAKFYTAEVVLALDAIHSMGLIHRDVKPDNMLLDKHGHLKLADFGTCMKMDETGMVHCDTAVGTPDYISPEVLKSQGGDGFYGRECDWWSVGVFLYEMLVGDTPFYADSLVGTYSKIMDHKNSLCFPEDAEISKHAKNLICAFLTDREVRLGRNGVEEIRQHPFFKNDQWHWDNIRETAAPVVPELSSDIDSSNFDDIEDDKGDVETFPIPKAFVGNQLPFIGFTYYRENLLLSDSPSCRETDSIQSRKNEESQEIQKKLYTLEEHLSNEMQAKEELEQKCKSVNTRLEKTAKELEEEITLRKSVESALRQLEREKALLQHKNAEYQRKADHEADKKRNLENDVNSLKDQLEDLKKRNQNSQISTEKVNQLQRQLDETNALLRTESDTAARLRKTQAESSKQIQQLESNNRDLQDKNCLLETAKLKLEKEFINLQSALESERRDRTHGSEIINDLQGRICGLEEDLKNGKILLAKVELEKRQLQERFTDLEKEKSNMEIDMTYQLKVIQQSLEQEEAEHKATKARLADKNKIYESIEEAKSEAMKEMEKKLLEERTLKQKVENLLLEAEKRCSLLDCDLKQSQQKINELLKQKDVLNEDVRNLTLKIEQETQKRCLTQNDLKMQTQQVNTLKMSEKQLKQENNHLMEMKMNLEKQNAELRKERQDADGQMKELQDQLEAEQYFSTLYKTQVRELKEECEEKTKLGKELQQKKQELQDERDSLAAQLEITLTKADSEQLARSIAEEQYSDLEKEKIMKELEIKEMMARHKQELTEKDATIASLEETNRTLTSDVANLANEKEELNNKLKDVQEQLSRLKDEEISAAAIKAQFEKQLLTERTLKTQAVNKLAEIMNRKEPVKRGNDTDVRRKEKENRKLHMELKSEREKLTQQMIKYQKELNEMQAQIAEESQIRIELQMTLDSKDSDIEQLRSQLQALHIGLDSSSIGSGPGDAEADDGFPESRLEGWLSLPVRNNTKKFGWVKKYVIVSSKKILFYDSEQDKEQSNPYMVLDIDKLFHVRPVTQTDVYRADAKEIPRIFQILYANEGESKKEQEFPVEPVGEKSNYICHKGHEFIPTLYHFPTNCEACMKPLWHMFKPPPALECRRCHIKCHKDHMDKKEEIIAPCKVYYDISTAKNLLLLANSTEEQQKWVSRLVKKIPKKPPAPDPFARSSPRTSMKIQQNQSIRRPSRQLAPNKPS

[7] = target: Proto-oncogene tyrosine-protein kinase Src (Homo sapiens, UniProt P12931)
Proto-oncogene tyrosine-protein kinase Src, sequence (P12931 2-536 limits assumed): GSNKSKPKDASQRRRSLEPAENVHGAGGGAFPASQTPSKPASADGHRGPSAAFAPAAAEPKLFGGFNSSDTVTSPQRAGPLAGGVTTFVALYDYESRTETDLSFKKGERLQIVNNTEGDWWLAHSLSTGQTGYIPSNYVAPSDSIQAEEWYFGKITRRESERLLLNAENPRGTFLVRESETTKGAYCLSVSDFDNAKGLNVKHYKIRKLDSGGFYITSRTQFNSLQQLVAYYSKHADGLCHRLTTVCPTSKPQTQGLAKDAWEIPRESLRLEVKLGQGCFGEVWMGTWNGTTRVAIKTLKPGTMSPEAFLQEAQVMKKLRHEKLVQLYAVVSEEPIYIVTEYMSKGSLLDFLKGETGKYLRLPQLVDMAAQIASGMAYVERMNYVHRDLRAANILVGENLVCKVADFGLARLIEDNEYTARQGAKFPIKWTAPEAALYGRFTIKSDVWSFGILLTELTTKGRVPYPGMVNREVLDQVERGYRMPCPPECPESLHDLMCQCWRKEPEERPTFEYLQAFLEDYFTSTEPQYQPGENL
Also: in the data inactive means no Kd found up to 30 µM.

Kd (Activin receptor type-1B) | Kd [1] | Kd [2] | Kd [3] | Kd [4] | Kd (Ephrin type-A receptor 2) | Kd (Insulin receptor) | Kd [5] | Kd [6] | Kd [7] | Compound
> 30 µM (inactive) | > 30 µM (inactive) | > 30 µM (inactive) | > 30 µM (inactive) | > 30 µM (inactive) | > 30 µM (inactive) | > 30 µM (inactive) | > 30 µM (inactive) | > 30 µM (inactive) | > 30 µM (inactive) | C=CC(=O)Nc1cccc(Nc2nc(Nc3ccc(N4CCN(C(C)=O)CC4)cc3OC)ncc2C(F)(F)F)c1 [ROCILETINIB]
> 30 µM (inactive) | > 30 µM (inactive) | > 30 µM (inactive) | > 30 µM (inactive) | > 30 µM (inactive) | > 30 µM (inactive) | > 30 µM (inactive) | > 30 µM (inactive) | > 30 µM (inactive) | > 30 µM (inactive) | Cc1cc(Nc2nc(N[C@@H](C)c3ncc(F)cn3)ncc2Cl)n[nH]1 [AZD-1480]
> 30 µM (inactive) | > 30 µM (inactive) | > 30 µM (inactive) | > 30 µM (inactive) | > 30 µM (inactive) | > 30 µM (inactive) | > 30 µM (inactive) | > 30 µM (inactive) | > 30 µM (inactive) | > 30 µM (inactive) | C[C@@H]1COC(Nc2ccc3ncnc(Nc4ccc(OCc5nccs5)c(Cl)c4)c3c2)=N1 [VARLITINIB]
> 30 µM (inactive) | > 30 µM (inactive) | > 30 µM (inactive) | > 30 µM (inactive) | > 30 µM (inactive) | > 30 µM (inactive) | > 30 µM (inactive) | > 30 µM (inactive) | > 30 µM (inactive) | > 30 µM (inactive) | COc1cc2ncnc(Nc3ccc(F)c(Cl)c3)c2cc1NC(=O)/C=C/CN1CCCCC1 [DACOMITINIB ANHYDROUS]
> 30 µM (inactive) | > 30 µM (inactive) | > 30 µM (inactive) | > 30 µM (inactive) | > 30 µM (inactive) | > 30 µM (inactive) | > 30 µM (inactive) | > 30 µM (inactive) | > 30 µM (inactive) | > 30 µM (inactive) | C#Cc1cccc(Nc2ncnc3cc4c(cc23)OCCOCCOCCO4)c1 [ICOTINIB]
> 30 µM (inactive) | > 30 µM (inactive) | > 30 µM (inactive) | > 30 µM (inactive) | > 30 µM (inactive) | > 30 µM (inactive) | > 30 µM (inactive) | > 30 µM (inactive) | > 30 µM (inactive) | > 30 µM (inactive) | CC(C)(O)CC(=O)NCCn1ccc2ncnc(Nc3ccc(Oc4cccc(C(F)(F)F)c4)c(Cl)c3)c21 [TAK-285]
> 30 µM (inactive) | > 30 µM (inactive) | > 30 µM (inactive) | > 30 µM (inactive) | > 30 µM (inactive) | > 30 µM (inactive) | > 30 µM (inactive) | > 30 µM (inactive) | > 30 µM (inactive) | > 30 µM (inactive) | CNC(=O)c1cccc(-c2ccc3c(N4CCOC[C@@H]4C)nc(N4CCOC[C@@H]4C)nc3n2)c1 [VISTUSERTIB]
> 30 µM (inactive) | > 30 µM (inactive) | > 30 µM (inactive) | > 30 µM (inactive) | > 30 µM (inactive) | > 30 µM (inactive) | > 30 µM (inactive) | > 30 µM (inactive) | > 30 µM (inactive) | > 30 µM (inactive) | COc1cc2ncnc3c2cc1OCCCCCN(C)Cc1ccc(Br)cc1N3 [JNJ-26483327]

Continued, compound first:

Compound | Kd (Activin receptor type-1B) | Kd [1] | Kd [2] | Kd [3] | Kd [4] | Kd (Ephrin type-A receptor 2) | Kd (Insulin receptor) | Kd [5] | Kd [6] | Kd [7]
CC1(COc2ccc3c(c2)ncn3-c2ccc3cccc(N4CCC(N)CC4)c3n2)COC1 [CRENOLANIB] | > 30 µM (inactive) | > 30 µM (inactive) | > 30 µM (inactive) | > 30 µM (inactive) | > 30 µM (inactive) | > 30 µM (inactive) | > 30 µM (inactive) | > 30 µM (inactive) | > 30 µM (inactive) | > 30 µM (inactive)
O=c1[nH]c([C@@H]2CCCN2)nc2c1oc1ccc(Cl)cc12 | > 30 µM (inactive) | > 30 µM (inactive) | > 30 µM (inactive) | > 30 µM (inactive) | > 30 µM (inactive) | > 30 µM (inactive) | > 30 µM (inactive) | 0.022 µM (active) | > 30 µM (inactive) | > 30 µM (inactive)
CCc1cc2c(cc1N1CCC(N3CCOCC3)CC1)C(C)(C)c1[nH]c3cc(C#N)ccc3c1C2=O [ALECTINIB] | > 30 µM (inactive) | > 30 µM (inactive) | > 30 µM (inactive) | > 30 µM (inactive) | > 30 µM (inactive) | > 30 µM (inactive) | > 30 µM (inactive) | > 30 µM (inactive) | > 30 µM (inactive) | > 30 µM (inactive)
Cc1c(NC(=O)OC[C@@H]2COCCN2)cn2ncnc(Nc3ccc4c(cnn4Cc4cccc(F)c4)c3)c12 [AC-480] | > 30 µM (inactive) | > 30 µM (inactive) | > 30 µM (inactive) | > 30 µM (inactive) | > 30 µM (inactive) | > 30 µM (inactive) | > 30 µM (inactive) | > 30 µM (inactive) | > 30 µM (inactive) | > 30 µM (inactive)
COCCN1CCN(Cc2ccc(-c3n[nH]c4c3C(=O)c3c(NC(=O)NN5CCOCC5)cccc3-4)cc2)CC1 [RGB-286638] | > 30 µM (inactive) | 1.09 µM (active) | > 30 µM (inactive) | > 30 µM (inactive) | 3.8 µM (active) | > 30 µM (inactive) | > 30 µM (inactive) | > 30 µM (inactive) | > 30 µM (inactive) | > 30 µM (inactive)
COc1ccc2c(OCc3nnc4ccc(-c5ccccc5)nn34)ccnc2c1 [AMG-208] | > 30 µM (inactive) | > 30 µM (inactive) | > 30 µM (inactive) | > 30 µM (inactive) | > 30 µM (inactive) | > 30 µM (inactive) | > 30 µM (inactive) | > 30 µM (inactive) | > 30 µM (inactive) | > 30 µM (inactive)
NC[C@@](O)(c1ccc(Cl)cc1)c1ccc(-c2cn[nH]c2)cc1 [AT-13148] | > 30 µM (inactive) | > 30 µM (inactive) | > 30 µM (inactive) | > 30 µM (inactive) | > 30 µM (inactive) | > 30 µM (inactive) | > 30 µM (inactive) | > 30 µM (inactive) | 0.026 µM (active) | > 30 µM (inactive)
